Holding throughout (format): in vivo, BALB/c mice
Test [1] has as its system Brucella melitensis 16M. The settings on record: intramuscular; 1 mg antibiotic/mouse on days 7, 8 and 9; sacrificed day 12.
In test [2] the test system is Brucella melitensis 16M. To be noted: 1 mg/mouse intramuscularly.
Test [3] relates to Brucella melitensis 16M. The settings on record: 1 mg ciprofloxacin/mouse intramuscularly, 5 × 10^4 CFU.

Each structure is given as a SMILES string. Read-outs that look alike come from different tables or passages of the source.

Turning to `CN(C)C1C(=O)C(C(N)=O)=C(O)C2(O)C(=O)C3=C(O)c4c(O)cccc4C(C)(O)C3CC12` (stereo not shown) [Tetracycline, tetracycline], the “Spleen counts after antibiotic was given” value in test [1] is reported as 4.8 ± 0.8 × 10^3.

`O=C(O)c1cn(C2CC2)c2cc(N3CCNCC3)c(F)cc2c1=O` [Ciprofloxacin, ciprofloxacin]: the “B. melitensis 16M counts in spleens 7 days after infection” value is recorded as 1.6 ± 0.3 × 10^4 in test [2] (single dose 1 day after infection (title; head prints before)); 13.0 ± 0.6 × 10^4 in test [2] (single dose 2 days after infection (title; head prints before)); 3.5 ± 0.9 × 10^4 in test [2] (single dose 3 days after infection (title; head prints before)); 3.9 ± 1.6 × 10^4 in test [2] (single dose 7 days after infection (title; head prints before)); 1.5 ± 0.3 × 10^4 in test [3] (single dose 1 day before infection); 2.8 ± 1.0 × 10^4 in test [3] (single dose 2 days before infection). For the same molecule, the “B. melitensis 16M counts in spleens 7 days after infection” value was 1.4 ± 0.2 × 10^4 in test [3] (single dose 3 days before infection) and 1.9 ± 0.4 × 10^4 in test [3] (single dose 7 days before infection). Moreover, in test [1], the “Spleen counts after antibiotic was given” value is reported as 1.3 ± 0.4 × 10^4.

The values are drawn from patent US6221386A (priority 1996, dated 2001).
